The target of one experiment is T1, BRD4 (BD1) (Homo sapiens, UniProt O60885).
T1 construct: amino acids 67-152, longer constructs also being possible, preferably amino acids 44-168; made in house; host or cells: E. coli
As to the kind of experiment: Binding assay BRD4/acetylated peptide H4 (TR-FRET protein-protein interaction assay). From the text:
To assess the BRD4 binding strength of the substances described in this application, the ability thereof to inhibit the interaction between BRD4 (BD1) and acetylated histone H4 in a dose-dependent manner was quantified.
For this purpose, a time-resolved fluorescence resonance energy transfer (TR-FRET) assay was used, which measures the binding between N-terminally His6-tagged BRD4 (BD1) (amino acids 67-152, longer constructs also being possible, preferably amino acids 44-168) and a synthetic acetylated histone H4 (Ac-H4) peptide with sequence GRGK(Ac)GGK(Ac)GLGK(Ac)GGAK(Ac)RHGSGSK-biotin. The recombinant BRD4 protein produced in-house according to Filippakopoulos et al., Nature, 2010, 468:1119-1123 was expressed in E. coli and purified by means of (Ni-NTA) affinity and (Sephadex G-75) size exclusion chromatography. The Ac-H4 peptide can be purchased, for example, from Biosyntan (Berlin, Germany).
In the assay, typically 11 different concentrations of each substance (0.1 nM, 0.33 nM, 1.1 nM, 3.8 nM, 13 nM, 44 nM, 0.15 μM, 0.51 μM, 1.7 μM, 5.9 μM and 20 μM) were analysed as duplicates on the same microtitre plate. For this purpose, 100-fold concentrated solutions in DMSO were prepared by serial dilutions (1:3.4) of a 2 mM stock solution into a clear, 384-well microtitre plate (Greiner Bio-One, Frickenhausen, Germany). From this, 50 nl were transferred into a black test plate (Greiner Bio-One, Frickenhausen, Germany). The test was started by the addition of 2 μl of a 2.5-fold concentrated BRD4 solution (final concentration typically 10 nM in the 5 μl of reaction volume) in aqueous assay buffer [50 mM HEPES pH 7.5, 50 mM sodium chloride (NaCl), 0.25 mM CHAPS and 0.05% serum albumin (BSA)] to the substances in the test plate. This was followed by a 10-minute incubation step at 22° C. for the pre-equilibration of putative complexes between BRD4 and the substances.
The mixture was then incubated in the dark at 22° C. for one hour and then at 4° C. for at least 3 hours and for no longer than overnight. The formation of BRD4/Ac-H4 complexes was determined by the measurement of the resonance energy transfer from the streptavidin-Eu cryptate to the anti-6His-XL665 antibody present in the reaction. For this purpose, the fluorescence emission was measured at 620 nm and 665 nm after excitation at 330-350 nm in a TR-FRET measuring instrument, for example a Rubystar or Pherastar (both from BMG Lab Technologies, Offenburg, Germany) or a Viewlux (Perkin-Elmer). The ratio of the emissions at 665 nm and at 622 nm was taken as an indicator of the amount of BRD4/Ac-H4 complexes formed.
The data (ratios) obtained were normalized, with 0% inhibition corresponding to the mean from the measurements for a set of controls (typically 32 data points) in which all the reagents were present. In these, in place of test substances, 50 nl of DMSO (100%) were used Inhibition of 100% corresponded to the mean from the measurements for a set of controls (typically 32 data points) in which all the reagents except BRD4 were present. The IC50 was determined by regression analysis based on a 4-parameter equation (minimum, maximum, IC50, Hill; Y=max+(min−max)/(1+(X/IC50)^Hill)).

The next experiment relates to B16F10 cells. Briefly: Cell proliferation assay (alamarBlue), B16F10. The format is cell-based. Conditions: Mus musculus, B16-F10, Melanoma (BRAF wild-type), 96 hours, inhibition of cell proliferation. The method, then:
(§1) In accordance with the invention, the ability of the substances to inhibit cell proliferation was determined Cell viability was determined by means of the alamarBlue® reagent (Invitrogen) in a Victor X3 Multilabel Reader (Perkin Elmer). The excitation wavelength was 530 nm and the emission wavelength […].
The B16F10 cells (ATCC, CRL-6475) were sown at a concentration of 300-500 cells/well in 100 μl of growth medium (DMEM with phenol red, 10% FCS) on 96-well microtitre plates.
(§2) The MDA-MB-231 cells (DSMZ, ACC 732) were sown at a concentration of 4000 cells/well in 100 μl of growth medium (DMEM/Ham's F12 medium, 10% FCS) on 96-well microtitre plates. After overnight incubation at 37° C., the fluorescence values (CI values) were determined. Then the plates were treated with various substance dilutions (1E-5 M, 3E-6 M, 1E-6 M, 3E-7 M, 1E-7 M, 3E-8 M, 1E-8 M) and incubated at 37° C. for 72 (MV-4-11, LOX-IMVI cells), 96 (MOLM-13, B16F10, […] cells), 120 (MOLP-8, KMS-12-PE cells) or 168 (LAPC-4 cells) hours. Subsequently, the fluorescence values were determined (CO values). For the data analysis, the CI values were subtracted from the CO values and the results were compared between cells which had been treated with various dilutions of the substance or only with buffer solution. The ICso values (substance concentration needed for 50% inhibition of cell proliferation) were calculated therefrom.
(§3) The substances were tested in the cell lines in Table 1, which represent the indications specified by way of example: […]

The test system of the next experiment is LAPC-4 cells. As to the kind of experiment: Cell proliferation assay (alamarBlue), LAPC-4. Format: cell-based. The settings on record: Homo sapiens, LAPC4, Prostate, 1 nM methyltrienolone, 168 hours, inhibition of cell proliferation. On the procedure:
as §1
The LAPC-4 cells (ATCC, PTA-1441TM) were sown at a concentration of 4000 cells/well in 100 μl of growth medium (RPMI1640, 2 mM L-glutamine, 10% cFCS) on 96-well microtitre plates. One day later, the LAPC-4 cells were treated with 1 nM methyltrienolone and various substance dilutions.
as §2, §3

For a further experiment, the system named is MOLM-13 cells. Briefly: Cell proliferation assay (alamarBlue), MOLM-13. The format is cell-based. Conditions: Homo sapiens, Leukaemia, 96 hours, inhibition of cell proliferation. On the procedure: as §1
The MOLM-13 cells (DSMZ, ACC 554) were sown at a concentration of 4000 cells/well in 100 μl of growth medium (RPMI1640, 10% FCS) on 96-well microtitre plates.
as §2, §3

The subject of the next experiment is MOLP-8 cells. As to the kind of experiment: Cell proliferation assay (alamarBlue), MOLP-8. Format: cell-based. Conditions: Homo sapiens, Multiple myeloma, 120 hours, inhibition of cell proliferation. On the procedure:
as §1
The MOLP-8 cells (DSMZ, ACC 569) were sown at a concentration of 4000 cells/well in 100 μl of growth medium (RPMI1640, 20% FCS) on 96-well microtitre plates.
as §2, §3

Where [1] appears, read: BRD4 (BD1) / acetylated histone H4 peptide, TR-FRET, read-out: IC50 (BRD4).

Where two headings read alike, the source gives them in different places.

As for `COC(=O)C[C@@H]1N=C(c2ccc(Cl)cc2)c2nn(C)cc2-n2c(C)nnc21` [Example 6, 2-[(4S)-6-(4-Chlorophenyl)-1,8-dimethyl-4,8-dihydropyrazolo[3,4-f][1,2,4]triazolo[4,3-a][1,4]diazepin-4-yl]acetic acid methyl ester], the IC50 at BRD4 (BD1) worked out at 140 nM; with B16F10 cells, 550 nM; with LAPC-4 cells, 250 nM; in the experiment on MOLM-13 cells, 450 nM; with MOLP-8 cells, 450 nM.
Take `Cc1c2c(cn1C)-n1c(C)nnc1[C@H](CC(=O)N1CCC(=O)C1)N=C2c1ccc(Cl)cc1` [Example 12]: the IC50 at BRD4 (BD1) (setting [1]) is 110 nM; in the experiment on B16F10 cells it was 600 nM; in the experiment with LAPC-4 cells, 220 nM; with MOLM-13 cells, 480 nM.
Consider `CCc1noc(C[C@@H]2N=C(c3ccc(Cl)cc3)c3c(cn(C)c3C)-n3c(C)nnc32)n1` [Example 28, (4S)-6-(4-Chlorophenyl)-1,7,8-trimethyl-4-[(3-ethyl-1,2,4-oxadiazol-5-yl)methyl]-4,8-dihydropyrrolo[3,4-f][1,2,4]triazolo[4,3-a][1,4]diazepine], for which the IC50 at BRD4 (BD1) (setting [1]) is 30 nM; in the experiment on MOLM-13 cells it was 70 nM; in the experiment on MOLP-8 cells it was 40 nM.
Take `Cc1noc(C[C@@H]2N=C(c3ccc(Cl)cc3)c3c(cn(C)c3C)-n3c(C)nnc32)n1` [Example 26, (4S)-6-(4-Chlorophenyl)-1,7,8-trimethyl-4-[(3-methyl-1,2,4-oxadiazol-5-yl)methyl]-4,8-dihydropyrrolo[3,4-f][1,2,4]triazolo[4,3-a][1,4]diazepine]: the IC50 was found to be 20 nM at BRD4 (BD1) (setting [1]), 80 nM with MOLM-13 cells and 50 nM in the experiment on MOLP-8 cells.
For the molecule `Cc1c2c(cn1C)-n1c(C)nnc1[C@H](CC(=O)Nc1ccc3c(c1)CC(=O)N3)N=C2c1ccc(Cl)cc1` [Example 13, 2-[(4S)-6-(4-Chlorophenyl)-1,7,8-trimethyl-4,8-dihydropyrrolo[3,4-f][1,2,4]triazolo[4,3-a][1,4]diazepin-4-yl]-N-(2-oxo-2,3-dihydro-1H-indol-5-yl)acetamide], the half-inhibitory concentration (IC50) worked out at 40 nM on BRD4 (BD1) (setting [1]); 330 nM in the experiment on B16F10 cells; 90 nM in the experiment with LAPC-4 cells; 190 nM in the experiment on MOLM-13 cells; 220 nM in the experiment on MOLP-8 cells.
Consider `Cc1c2c(cn1C)-n1c(C)nnc1[C@H](Cc1nc(C(C)C)no1)N=C2c1ccc(Cl)cc1` [Example 30, (4S)-6-(4-Chlorophenyl)-1,7,8-trimethyl-4-{[3-(propan-2-yl)-1,2,4-oxadiazol-5-yl]methyl}-4,8-dihydropyrrolo[3,4-f][1,2,4]triazolo[4,3-a][1,4]diazepine], for which the IC50 at BRD4 (BD1) (setting [1]) was determined as 30 nM; in the experiment on MOLM-13 cells, 70 nM; in the experiment with MOLP-8 cells, 50 nM.
Turning to `Cc1nnc2n1-c1cn(C)nc1C(c1ccc(Cl)cc1)=NC2CC(=O)N1CCS(=O)(=O)CC1` (centres unmarked) [Example 14, 2-[6-(4-Chlorophenyl)-1,8-dimethyl-4,8-dihydropyrazolo[3,4-f][1,2,4]triazolo[4,3-a][1,4]diazepin-4-yl]-1-(1,1-dioxidothiomorpholin-4-yl)ethanone], the IC50 on BRD4 (BD1) (setting [1]) came to 640 nM; in the experiment on MOLM-13 cells, 3460 nM; in the experiment with MOLP-8 cells it was 4000 nM.
On to `Cc1c2c(cn1C)-n1c(C)nnc1[C@H](CC(=O)N(C)CC1(C)COC1)N=C2c1ccc(Cl)cc1` [Example 11, (−)-2-[(4S)-6-(4-Chlorophenyl)-1,7,8-trimethyl-4,8-dihydropyrrolo[3,4f][1,2,4]triazolo[4,3-a][1,4]diazepin-4-yl]-N-methyl-N-[(3-methyloxetan-3-yl)methyl]acetamide], for which the IC50 on BRD4 (BD1) (setting [1]) worked out at 220 nM; in the experiment with B16F10 cells, 1400 nM; in the experiment on LAPC-4 cells it was 810 nM; in the experiment with MOLM-13 cells, 1990 nM.
Take `Cc1c2c(cn1C)-n1c(C)nnc1[C@H](CC(=O)N1CC(F)C1)N=C2c1ccc(Cl)cc1` [Example 5, (−)-2-[(4S)-6-(4-Chlorophenyl)-1,7,8-trimethyl-4,8-dihydropyrrolo[3,4f][1,2,4]triazolo [4,3-a][1,4]diazepin-4-yl]-1-(3-fluoroazetidin-1-yl)ethan-1-one]: the IC50 at BRD4 (BD1) (setting [1]) came out at 70 nM; in the experiment on B16F10 cells, 580 nM; with LAPC-4 cells it was 370 nM; in the experiment on MOLM-13 cells it was 530 nM; in the experiment on MOLP-8 cells, 370 nM.
Regarding `COC(=O)C[C@@H]1N=C(c2ccc(Cl)cc2)c2c(cnn2C)-n2c(C)nnc21` [Example 7, 2-[(4S)-6-(4-Chlorophenyl)-1,7-dimethyl-4,7-dihydropyrazolo[3,4-f][1,2,4]triazolo[4,3-a][1,4]diazepin-4-yl]acetic acid methyl ester], the IC50 is 230 nM at BRD4 (BD1), 740 nM with MOLM-13 cells and 450 nM in the experiment with MOLP-8 cells.
Turning to `CC(=O)N1CC(NC(=O)C[C@@H]2N=C(c3ccc(Cl)cc3)c3c(cn(C)c3C)-n3c(C)nnc32)C1` [Example 9, N-(1-Acetylazetidin-3-yl)-2-(4S)-[6-(4-chlorophenyl)-1,7,8-trimethyl-4,8-dihydropyrrolo[3,4-f][1,2,4]triazolo[4,3-a][1,4]diazepin-4-yl]acetamide], the IC50 on BRD4 (BD1) (setting [1]) came to 110 nM; with LAPC-4 cells, 550 nM; in the experiment with MOLM-13 cells it was 610 nM.
Regarding `Cc1c2c(cn1C)-n1c(C)nnc1[C@H](CC(=O)N1CCOCC1)N=C2c1ccc(Cl)cc1` [Example 21], the values for the IC50 on BRD4 (BD1) (setting [1]), in the experiment on LAPC-4 cells and in the experiment on MOLM-13 cells were 40 nM, 240 nM and 520 nM, respectively.

Values taken from patent US20150376196A1, “4-SUBSTITUTED PYRROLO- AND PYRAZOLO-DIAZEPINES” (BAYER PHARMA AKTIENGESELLSCHAFT, priority 2013, published 2015).
